# Tested on: 361931-004-R-J1-PDC multicell spheroid viability
# Experiment: Anticancer human tumor 361931-004-R-J1-PDC patient-derived colon adenocarcinoma cell line growth inhibition [PI3K]
# Details: for viability, T/C: stronger effect = lower value
# Outline: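 Three cell types, namely tumor cells, endothelial cells and mesenchymal stem cells, formed each spheroid. Combinations with four PI3K inhibitors were screened at clinically achievable concentrations decreasing by half-log, and spheroid viability was recorded.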
# [1] = curve of first compound, second compound 0.0316 µM
# [2] = curve of first compound, second compound 0.1 µM
# [3] = curve of first compound, second compound 0.316 µM
# [4] = curve of first compound, second compound 1 µM
# 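Note: spheroids exposed to agents for seven days before readout.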
smiles,measurement,setting,value
Cn1cnc2c(F)c(Nc3ccc(Br)cc3Cl)c(C(=O)NOCCO)cc21 + CC(Nc1ncnc2nc[nH]c12)c1cc2cccc(Cl)c2c(=O)n1-c1ccccc1,IC50,[1],> 3 µM
same,IC50,[2],> 3 µM
same,IC50,[3],> 3 µM
same,IC50,[4],> 3 µM
same,IC50,"curve of first compound, second compound 3.16 µM",2.88 µM
same,IC50,"curve of first compound, second compound 10 µM",1.67 µM
same,"viability, T/C","second compound 0.0316 µM, first compound 0.00949 µM",98.1%
same,"viability, T/C","second compound 0.0316 µM, first compound 0.03 µM",95.3%
same,"viability, T/C","second compound 0.0316 µM, first compound 0.0949 µM",94%
same,"viability, T/C","second compound 0.0316 µM, first compound 0.3 µM",87.4%
same,"viability, T/C","second compound 0.0316 µM, first compound 0.949 µM",82%
same,"viability, T/C","second compound 0.0316 µM, first compound 3 µM",59.1%
same,"viability, T/C","second compound 0.1 µM, first compound 0.00949 µM",109%
same,"viability, T/C","second compound 0.1 µM, first compound 0.03 µM",96.2%
same,"viability, T/C","second compound 0.1 µM, first compound 0.0949 µM",94.2%
same,"viability, T/C","second compound 0.1 µM, first compound 0.3 µM",82.9%
same,"viability, T/C","second compound 0.1 µM, first compound 0.949 µM",87.4%
same,"viability, T/C","second compound 0.1 µM, first compound 3 µM",61.7%
same,"viability, T/C","second compound 0.316 µM, first compound 0.00949 µM",105%
same,"viability, T/C","second compound 0.316 µM, first compound 0.03 µM",102%
same,"viability, T/C","second compound 0.316 µM, first compound 0.0949 µM",88.8%
same,"viability, T/C","second compound 0.316 µM, first compound 0.3 µM",85.8%
same,"viability, T/C","second compound 0.316 µM, first compound 0.949 µM",82.9%
same,"viability, T/C","second compound 0.316 µM, first compound 3 µM",58.1%
same,"viability, T/C","second compound 1 µM, first compound 0.00949 µM",97.9%
same,"viability, T/C","second compound 1 µM, first compound 0.03 µM",94.4%
same,"viability, T/C","second compound 1 µM, first compound 0.0949 µM",93.3%
same,"viability, T/C","second compound 1 µM, first compound 0.3 µM",79.5%
same,"viability, T/C","second compound 1 µM, first compound 0.949 µM",81.4%
same,"viability, T/C","second compound 1 µM, first compound 3 µM",59.7%
same,"viability, T/C","second compound 3.16 µM, first compound 0.00949 µM",92.8%
same,"viability, T/C","second compound 3.16 µM, first compound 0.03 µM",96.2%
same,"viability, T/C","second compound 3.16 µM, first compound 0.0949 µM",90.9%
same,"viability, T/C","second compound 3.16 µM, first compound 0.3 µM",91.3%
same,"viability, T/C","second compound 3.16 µM, first compound 0.949 µM",77%
same,"viability, T/C","second compound 3.16 µM, first compound 3 µM",48.9%
same,"viability, T/C","second compound 10 µM, first compound 0.00949 µM",99.1%
same,"viability, T/C","second compound 10 µM, first compound 0.03 µM",92.4%
same,"viability, T/C","second compound 10 µM, first compound 0.0949 µM",86.9%
same,"viability, T/C","second compound 10 µM, first compound 0.3 µM",85.2%
same,"viability, T/C","second compound 10 µM, first compound 0.949 µM",66.5%
same,"viability, T/C","second compound 10 µM, first compound 3 µM",33%
CNC(=O)c1ccc(N2C(=S)N(c3ccc(C#N)c(C(F)(F)F)c3)C(=O)C2(C)C)cc1F + COc1c(OCCCN2CCOCC2)ccc2c3n(c(=NC(=O)c4cnc(N)nc4)nc12)CCN3,IC50,"curve of first compound, second compound 0.00316 µM",> 10 µM
same,IC50,"curve of first compound, second compound 0.01 µM",> 10 µM
same,IC50,[1],> 10 µM
same,IC50,[2],> 10 µM
same,IC50,[3],3.98 µM
same,IC50,[4],< 0.0316 µM
same,"viability, T/C","second compound 0.00316 µM, first compound 0.0316 µM",103%
same,"viability, T/C","second compound 0.00316 µM, first compound 0.1 µM",102%
same,"viability, T/C","second compound 0.00316 µM, first compound 0.316 µM",97.6%
same,"viability, T/C","second compound 0.00316 µM, first compound 1 µM",103%
same,"viability, T/C","second compound 0.00316 µM, first compound 3.16 µM",105%
same,"viability, T/C","second compound 0.00316 µM, first compound 10 µM",88.5%
same,"viability, T/C","second compound 0.01 µM, first compound 0.0316 µM",95.5%
same,"viability, T/C","second compound 0.01 µM, first compound 0.1 µM",101%
same,"viability, T/C","second compound 0.01 µM, first compound 0.316 µM",98.8%
same,"viability, T/C","second compound 0.01 µM, first compound 1 µM",98.2%
same,"viability, T/C","second compound 0.01 µM, first compound 3.16 µM",98.7%
same,"viability, T/C","second compound 0.01 µM, first compound 10 µM",86.2%
same,"viability, T/C","second compound 0.0316 µM, first compound 0.0316 µM",83.6%
same,"viability, T/C","second compound 0.0316 µM, first compound 0.1 µM",92.3%
same,"viability, T/C","second compound 0.0316 µM, first compound 0.316 µM",91.7%
same,"viability, T/C","second compound 0.0316 µM, first compound 1 µM",90%
same,"viability, T/C","second compound 0.0316 µM, first compound 3.16 µM",95.7%
same,"viability, T/C","second compound 0.0316 µM, first compound 10 µM",88.4%
same,"viability, T/C","second compound 0.1 µM, first compound 0.0316 µM",81.1%
same,"viability, T/C","second compound 0.1 µM, first compound 0.1 µM",82.5%
same,"viability, T/C","second compound 0.1 µM, first compound 0.316 µM",76.1%
same,"viability, T/C","second compound 0.1 µM, first compound 1 µM",81.5%
same,"viability, T/C","second compound 0.1 µM, first compound 3.16 µM",86.1%
same,"viability, T/C","second compound 0.1 µM, first compound 10 µM",65.8%
same,"viability, T/C","second compound 0.316 µM, first compound 0.0316 µM",56.2%
same,"viability, T/C","second compound 0.316 µM, first compound 0.1 µM",53%
same,"viability, T/C","second compound 0.316 µM, first compound 0.316 µM",54.1%
same,"viability, T/C","second compound 0.316 µM, first compound 1 µM",57.5%
same,"viability, T/C","second compound 0.316 µM, first compound 3.16 µM",52.8%
same,"viability, T/C","second compound 0.316 µM, first compound 10 µM",36.7%
same,"viability, T/C","second compound 1 µM, first compound 0.0316 µM",28.7%
same,"viability, T/C","second compound 1 µM, first compound 0.1 µM",22.2%
same,"viability, T/C","second compound 1 µM, first compound 0.316 µM",22.7%
same,"viability, T/C","second compound 1 µM, first compound 1 µM",26.8%
same,"viability, T/C","second compound 1 µM, first compound 3.16 µM",26.5%
same,"viability, T/C","second compound 1 µM, first compound 10 µM",17.1%
Cn1ncnc1[C@H]1c2n[nH]c(=O)c3cc(F)cc(c23)N[C@@H]1c1ccc(F)cc1,"viability, T/C",compound 0.000316 µM,103% [middle of 4 runs]
same,"viability, T/C",compound 0.001 µM,99.7% [middle of 4 runs]
same,"viability, T/C",compound 0.00316 µM,96.5% [middle of 4 runs]
same,"viability, T/C",compound 0.01 µM,101% [middle of 4 runs]
same,"viability, T/C",compound 0.0316 µM,102% [middle of 4 runs]
same,IC50,curve of compound,> 0.1 µM
